Data set [1] in a line: Permeability through rabbit colon, Ussing Chamber method. Type of data set: in vitro ADME. The text has this: This device consists of: 6 cells divided into two parts by a septum, which accommodate the tissue obtained from the rabbit colon; an oxygenation system; a system for the circulation of a specific buffer solution maintained at constant temperature by heating; and finally electrodes for measuring the compound concentration variations, wherefrom the apparent permeability coefficient (Papp), expressed in cm/sec, is obtained.

The nature of data set [2]: Pharmacokinetic study, oral administration to rats. The data set is classed as in vivo. The settings on record: rat, blood, equimolecular doses (Resveratrol 2 mg/Kg, complex 9.13 mg/Kg). As for the experimental part:
The product concentration in blood was determined at prefixed time intervals.

From patent publication US20040116386A1, “Resveratrol-phospholipids complexes, their preparation, and pharmaceutical and cosmetic composition containing same” (priority 2001, published 2004) come the findings set out here.

Broadly, the Papp is a coefficient for how fast a substance crosses the barrier. Read a low Papp as slow passage.

For the compound `Oc1ccc(/C=C/c2cc(O)cc(O)c2)cc1` [trans-Resveratrol], the apparent permeability (Papp) in data set [1] was 0.2 ×10⁻⁶ cm/s. The concentration at 15 min in data set [2] (15 min) is 18 ng/mL. This compound returned a concentration at 30 min in data set [2] (30 min) of 34 ng/mL. The compound also registered a concentration at 60 min in data set [2] (60 min) of 43 ng/mL. Further, in data set [2] (120 min), the concentration at 120 min is 11 ng/mL. This compound yielded a concentration at 240 min in data set [2] (240 min) of 0 ng/mL.
